# Experiments:
# Assay in all cases: Eurofins kinase panel
# Assay type in all cases: biochemical
# Conditions in all cases: read-out: Inhibition rate (%)
# [1] = target: T1, ATM(h) (Homo sapiens, UniProt Q13315)
# T1 construct: purchased Eurofins (KinaseProfiler)
# [2] = target: T2, EGFR(T790M)(h) (Homo sapiens, UniProt P00533, T790M)
# T2 construct: purchased Eurofins (KinaseProfiler)
# [3] = target: T3, Fes(h) (Homo sapiens, UniProt P07332)
# T3 construct: purchased Eurofins (KinaseProfiler)
# [4] = target: T4, GRK7(h) (Homo sapiens, UniProt Q8WTQ7)
# T4 construct: purchased Eurofins (KinaseProfiler)
# T4 sequence (Q8WTQ7 1-553): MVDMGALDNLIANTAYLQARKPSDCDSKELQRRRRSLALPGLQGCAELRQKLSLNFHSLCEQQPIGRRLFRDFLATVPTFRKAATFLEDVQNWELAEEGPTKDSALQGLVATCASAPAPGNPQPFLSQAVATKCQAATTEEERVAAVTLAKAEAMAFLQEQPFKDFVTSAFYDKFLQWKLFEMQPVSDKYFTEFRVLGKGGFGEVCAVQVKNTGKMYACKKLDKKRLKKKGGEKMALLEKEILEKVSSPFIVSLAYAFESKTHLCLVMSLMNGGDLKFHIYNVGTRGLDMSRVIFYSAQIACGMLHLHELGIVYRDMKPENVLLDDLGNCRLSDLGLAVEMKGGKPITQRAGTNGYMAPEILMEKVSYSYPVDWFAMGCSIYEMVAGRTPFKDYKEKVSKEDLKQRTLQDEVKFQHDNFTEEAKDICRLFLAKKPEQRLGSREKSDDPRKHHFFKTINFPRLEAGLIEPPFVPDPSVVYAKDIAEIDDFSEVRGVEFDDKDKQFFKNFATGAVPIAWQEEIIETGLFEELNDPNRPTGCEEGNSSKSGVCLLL
# [5] = target: T5, HIPK2(h) (Homo sapiens, UniProt Q9H2X6)
# T5 construct: purchased Eurofins (KinaseProfiler)
# T5 sequence (Q9H2X6 whole entry): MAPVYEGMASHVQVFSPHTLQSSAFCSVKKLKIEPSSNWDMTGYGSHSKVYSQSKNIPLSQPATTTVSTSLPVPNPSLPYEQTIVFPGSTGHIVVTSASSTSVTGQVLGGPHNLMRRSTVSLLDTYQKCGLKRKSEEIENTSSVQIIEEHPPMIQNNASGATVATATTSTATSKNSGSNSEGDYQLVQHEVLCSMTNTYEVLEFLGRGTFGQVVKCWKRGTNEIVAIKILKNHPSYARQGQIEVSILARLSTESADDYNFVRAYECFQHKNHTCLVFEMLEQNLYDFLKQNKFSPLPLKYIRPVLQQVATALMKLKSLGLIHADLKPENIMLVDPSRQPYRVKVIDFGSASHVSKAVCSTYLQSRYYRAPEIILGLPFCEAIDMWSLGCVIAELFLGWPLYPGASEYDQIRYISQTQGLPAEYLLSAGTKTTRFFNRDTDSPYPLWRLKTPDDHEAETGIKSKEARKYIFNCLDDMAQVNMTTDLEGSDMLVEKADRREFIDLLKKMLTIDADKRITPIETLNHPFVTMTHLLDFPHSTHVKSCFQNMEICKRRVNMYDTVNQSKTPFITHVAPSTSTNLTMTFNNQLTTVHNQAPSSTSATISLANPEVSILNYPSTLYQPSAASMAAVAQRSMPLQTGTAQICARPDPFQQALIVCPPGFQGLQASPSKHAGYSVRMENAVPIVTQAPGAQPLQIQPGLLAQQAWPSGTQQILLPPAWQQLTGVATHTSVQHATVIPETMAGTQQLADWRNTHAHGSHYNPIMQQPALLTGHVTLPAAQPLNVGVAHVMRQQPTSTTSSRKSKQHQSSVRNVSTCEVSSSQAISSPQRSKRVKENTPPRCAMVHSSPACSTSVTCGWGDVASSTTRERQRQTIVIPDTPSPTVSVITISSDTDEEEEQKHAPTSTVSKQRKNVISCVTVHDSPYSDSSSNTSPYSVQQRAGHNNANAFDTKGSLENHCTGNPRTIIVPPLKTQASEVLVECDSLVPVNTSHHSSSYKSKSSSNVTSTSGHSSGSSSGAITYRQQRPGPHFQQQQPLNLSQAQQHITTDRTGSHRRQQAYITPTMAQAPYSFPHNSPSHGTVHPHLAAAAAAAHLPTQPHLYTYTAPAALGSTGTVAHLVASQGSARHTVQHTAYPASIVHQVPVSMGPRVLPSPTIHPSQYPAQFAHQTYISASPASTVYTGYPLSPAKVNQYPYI
# [6] = target: T6, MINK(h) (Homo sapiens, UniProt Q8N4C8)
# T6 construct: purchased Eurofins (KinaseProfiler)
# T6 sequence (Q8N4C8 whole entry): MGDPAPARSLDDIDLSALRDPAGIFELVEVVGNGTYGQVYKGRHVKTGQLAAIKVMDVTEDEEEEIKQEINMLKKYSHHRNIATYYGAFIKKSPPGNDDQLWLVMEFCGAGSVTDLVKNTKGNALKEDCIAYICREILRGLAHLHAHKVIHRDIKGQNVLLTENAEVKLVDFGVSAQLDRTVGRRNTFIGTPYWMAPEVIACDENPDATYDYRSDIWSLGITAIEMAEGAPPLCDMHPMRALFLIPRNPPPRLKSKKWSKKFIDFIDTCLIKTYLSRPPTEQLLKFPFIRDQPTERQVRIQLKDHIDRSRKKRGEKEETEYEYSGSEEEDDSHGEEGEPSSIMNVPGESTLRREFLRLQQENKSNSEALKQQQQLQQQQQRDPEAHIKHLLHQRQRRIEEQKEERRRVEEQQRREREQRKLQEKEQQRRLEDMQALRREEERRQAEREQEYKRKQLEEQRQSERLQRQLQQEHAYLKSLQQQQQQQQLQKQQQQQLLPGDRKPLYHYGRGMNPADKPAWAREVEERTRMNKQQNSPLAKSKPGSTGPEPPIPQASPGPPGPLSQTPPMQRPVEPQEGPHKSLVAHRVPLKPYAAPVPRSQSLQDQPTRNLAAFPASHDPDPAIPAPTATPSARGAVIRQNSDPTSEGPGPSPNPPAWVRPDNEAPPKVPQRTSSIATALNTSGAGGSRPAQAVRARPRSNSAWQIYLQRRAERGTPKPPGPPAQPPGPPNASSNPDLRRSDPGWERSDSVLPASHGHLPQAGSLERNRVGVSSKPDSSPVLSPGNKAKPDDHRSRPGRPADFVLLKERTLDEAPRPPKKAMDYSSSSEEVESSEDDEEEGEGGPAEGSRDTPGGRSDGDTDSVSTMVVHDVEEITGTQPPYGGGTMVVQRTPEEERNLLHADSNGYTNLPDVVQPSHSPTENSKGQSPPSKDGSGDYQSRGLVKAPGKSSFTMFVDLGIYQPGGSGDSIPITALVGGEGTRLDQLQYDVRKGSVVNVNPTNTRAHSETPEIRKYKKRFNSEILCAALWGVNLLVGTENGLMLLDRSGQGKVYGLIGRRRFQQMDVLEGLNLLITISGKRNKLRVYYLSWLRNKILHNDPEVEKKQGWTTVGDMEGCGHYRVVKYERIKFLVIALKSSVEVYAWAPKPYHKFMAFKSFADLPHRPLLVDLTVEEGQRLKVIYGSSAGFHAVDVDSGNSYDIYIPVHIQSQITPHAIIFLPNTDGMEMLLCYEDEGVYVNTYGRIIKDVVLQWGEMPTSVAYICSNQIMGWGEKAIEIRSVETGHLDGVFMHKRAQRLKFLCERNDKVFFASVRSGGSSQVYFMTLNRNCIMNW
# [7] = target: T7, PKD3(h) (Homo sapiens, UniProt O94806)
# T7 construct: purchased Eurofins (KinaseProfiler)
# T7 sequence (O94806 1-890): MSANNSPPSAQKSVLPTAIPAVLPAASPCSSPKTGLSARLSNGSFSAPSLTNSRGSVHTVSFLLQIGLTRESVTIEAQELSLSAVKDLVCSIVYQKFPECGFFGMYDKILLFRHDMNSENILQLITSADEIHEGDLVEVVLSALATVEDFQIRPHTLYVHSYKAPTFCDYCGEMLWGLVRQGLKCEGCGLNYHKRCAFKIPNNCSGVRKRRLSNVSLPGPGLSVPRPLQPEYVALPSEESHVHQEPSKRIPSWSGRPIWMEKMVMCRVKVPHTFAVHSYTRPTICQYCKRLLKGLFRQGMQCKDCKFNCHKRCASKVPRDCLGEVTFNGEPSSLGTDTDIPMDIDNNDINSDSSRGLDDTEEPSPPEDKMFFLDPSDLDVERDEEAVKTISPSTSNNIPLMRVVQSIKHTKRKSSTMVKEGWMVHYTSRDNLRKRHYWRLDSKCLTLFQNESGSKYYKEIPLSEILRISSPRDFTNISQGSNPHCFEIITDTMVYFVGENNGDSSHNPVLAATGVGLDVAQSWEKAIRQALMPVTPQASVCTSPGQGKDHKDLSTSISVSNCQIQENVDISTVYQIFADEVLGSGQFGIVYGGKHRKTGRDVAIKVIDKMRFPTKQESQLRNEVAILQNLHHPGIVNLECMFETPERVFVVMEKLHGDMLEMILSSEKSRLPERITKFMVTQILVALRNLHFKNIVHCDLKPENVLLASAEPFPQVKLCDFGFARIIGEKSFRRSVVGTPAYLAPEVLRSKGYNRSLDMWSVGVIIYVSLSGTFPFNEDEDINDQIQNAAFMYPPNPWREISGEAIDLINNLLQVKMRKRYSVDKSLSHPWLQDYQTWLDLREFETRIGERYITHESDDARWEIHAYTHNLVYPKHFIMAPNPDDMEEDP
# [8] = target: T8, Pim-3(h) (Homo sapiens, UniProt Q86V86)
# T8 construct: purchased Eurofins (KinaseProfiler)
# [9] = target: T9, Ron(h) (Homo sapiens, UniProt Q04912)
# T9 construct: purchased Eurofins (KinaseProfiler)
# T9 sequence (Q04912 25-1400): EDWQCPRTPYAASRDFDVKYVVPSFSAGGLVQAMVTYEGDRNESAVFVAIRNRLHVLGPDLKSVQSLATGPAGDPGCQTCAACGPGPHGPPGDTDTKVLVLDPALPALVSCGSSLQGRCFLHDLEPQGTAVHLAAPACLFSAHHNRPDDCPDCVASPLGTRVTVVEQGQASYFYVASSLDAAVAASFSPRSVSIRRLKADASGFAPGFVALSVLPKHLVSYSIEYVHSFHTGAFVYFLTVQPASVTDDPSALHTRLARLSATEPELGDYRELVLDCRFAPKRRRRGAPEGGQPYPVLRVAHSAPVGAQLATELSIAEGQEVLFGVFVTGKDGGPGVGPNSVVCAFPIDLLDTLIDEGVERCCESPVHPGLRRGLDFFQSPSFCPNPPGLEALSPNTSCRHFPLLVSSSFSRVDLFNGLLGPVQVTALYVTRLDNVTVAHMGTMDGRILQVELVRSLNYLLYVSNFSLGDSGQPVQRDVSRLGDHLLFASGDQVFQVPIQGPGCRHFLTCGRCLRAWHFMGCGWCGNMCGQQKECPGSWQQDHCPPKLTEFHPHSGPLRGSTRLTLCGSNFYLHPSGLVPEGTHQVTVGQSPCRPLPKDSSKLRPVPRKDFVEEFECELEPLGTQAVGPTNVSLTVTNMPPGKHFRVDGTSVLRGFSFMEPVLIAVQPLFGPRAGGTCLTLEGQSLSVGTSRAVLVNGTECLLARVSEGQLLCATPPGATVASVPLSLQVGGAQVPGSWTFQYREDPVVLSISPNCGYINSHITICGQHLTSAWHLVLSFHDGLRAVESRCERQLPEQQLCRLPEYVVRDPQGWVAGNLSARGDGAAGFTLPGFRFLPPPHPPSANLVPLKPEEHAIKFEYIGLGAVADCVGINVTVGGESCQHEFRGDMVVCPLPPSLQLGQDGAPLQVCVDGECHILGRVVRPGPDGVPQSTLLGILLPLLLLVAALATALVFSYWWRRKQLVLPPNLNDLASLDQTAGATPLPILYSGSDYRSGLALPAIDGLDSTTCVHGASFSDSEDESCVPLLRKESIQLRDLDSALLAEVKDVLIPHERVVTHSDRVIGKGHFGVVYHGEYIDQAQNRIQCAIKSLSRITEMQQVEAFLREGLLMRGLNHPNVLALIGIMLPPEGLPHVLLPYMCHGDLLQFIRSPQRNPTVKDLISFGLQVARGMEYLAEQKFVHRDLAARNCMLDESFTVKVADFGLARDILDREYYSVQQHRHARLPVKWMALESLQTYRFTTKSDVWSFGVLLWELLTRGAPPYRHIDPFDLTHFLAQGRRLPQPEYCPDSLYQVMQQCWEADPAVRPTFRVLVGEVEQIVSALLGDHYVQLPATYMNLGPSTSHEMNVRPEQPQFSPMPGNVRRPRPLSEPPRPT
# T3 sequence (P07332 whole entry): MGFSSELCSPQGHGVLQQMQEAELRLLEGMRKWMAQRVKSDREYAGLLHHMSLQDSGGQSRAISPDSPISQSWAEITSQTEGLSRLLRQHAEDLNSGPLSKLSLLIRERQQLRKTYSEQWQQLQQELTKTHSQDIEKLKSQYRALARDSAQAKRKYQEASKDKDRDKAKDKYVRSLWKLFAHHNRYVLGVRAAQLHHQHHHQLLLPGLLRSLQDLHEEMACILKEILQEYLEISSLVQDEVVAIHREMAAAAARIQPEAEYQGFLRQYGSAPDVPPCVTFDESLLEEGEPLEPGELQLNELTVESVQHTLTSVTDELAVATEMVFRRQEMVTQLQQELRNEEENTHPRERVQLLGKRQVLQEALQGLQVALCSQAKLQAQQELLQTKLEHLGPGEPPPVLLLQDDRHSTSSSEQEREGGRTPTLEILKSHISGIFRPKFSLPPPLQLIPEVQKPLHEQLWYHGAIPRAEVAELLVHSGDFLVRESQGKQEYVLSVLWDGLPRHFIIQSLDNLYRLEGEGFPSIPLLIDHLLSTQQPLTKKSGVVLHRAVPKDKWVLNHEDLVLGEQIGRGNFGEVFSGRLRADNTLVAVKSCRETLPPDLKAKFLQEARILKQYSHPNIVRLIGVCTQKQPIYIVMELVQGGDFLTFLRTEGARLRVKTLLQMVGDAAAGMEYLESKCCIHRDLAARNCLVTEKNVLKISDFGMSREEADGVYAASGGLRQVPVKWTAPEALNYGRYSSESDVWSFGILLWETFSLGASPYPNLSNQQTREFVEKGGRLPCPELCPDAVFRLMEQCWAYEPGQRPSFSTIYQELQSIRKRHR
compound,measurement,setting,value
COc1cc(OC)c(Cl)c(-c2ccc3c(NC(=O)c4ccc(N5CCNC(C)(C)C5)cc4)n[nH]c3n2)c1Cl [3D185],inhibition at 0.01 µM,[1]; 10 nM,-3%
same,inhibition at 0.1 µM,[1]; 100 nM,-5%
same,inhibition at 1 µM,[1]; 1000 nM,-5%
same,inhibition at 0.01 µM,[2]; 10 nM,-15%
same,inhibition at 0.1 µM,[2]; 100 nM,-8%
same,inhibition at 1 µM,[2]; 1000 nM,29%
same,inhibition at 0.01 µM,[3]; 10 nM,-8%
same,inhibition at 0.1 µM,[3]; 100 nM,36%
same,inhibition at 1 µM,[3]; 1000 nM,91%
same,inhibition at 0.01 µM,[4]; 10 nM,9%
same,inhibition at 0.1 µM,[4]; 100 nM,16%
same,inhibition at 1 µM,[4]; 1000 nM,27%
same,inhibition at 0.01 µM,[5]; 10 nM,3%
same,inhibition at 0.1 µM,[5]; 100 nM,6%
same,inhibition at 1 µM,[5]; 1000 nM,-10%
same,inhibition at 0.01 µM,[6]; 10 nM,28%
same,inhibition at 0.1 µM,[6]; 100 nM,68%
same,inhibition at 1 µM,[6]; 1000 nM,90%
same,inhibition at 0.01 µM,[7]; 10 nM,-3%
same,inhibition at 0.1 µM,[7]; 100 nM,-2%
same,inhibition at 1 µM,[7]; 1000 nM,11%
same,inhibition at 0.01 µM,[8]; 10 nM,-5%
same,inhibition at 0.1 µM,[8]; 100 nM,-11%
same,inhibition at 1 µM,[8]; 1000 nM,-1%
same,inhibition at 0.01 µM,[9]; 10 nM,-16%
same,inhibition at 0.1 µM,[9]; 100 nM,-10%
same,inhibition at 1 µM,[9]; 1000 nM,28%
